Measurements reported in patent US5315038A, “Microorganism for breaking down moenomycins, a process for the breakdown, and the use of the breakdown products” (Hoechst Aktiengesellschaft, priority 1988, dated 1994).
Values after ≈ are worked out from the molar mass of the structure shown.

Key:
Moenomycinase [1] = experiment: Moenomycinase activity (activation / inhibition); assay type: biochemical, Bacillus spec. DSM 4675
From the text: The dissolved enzyme was further purified by chromatography. For anion exchange chromatography, the enzyme was bound to a column of DEAE-52 (Whatman) or MonoQHR-5-5 (Pharmacia) and then eluted with 0.2-1.0M NaCl. Presence of moenomycinase in the fractions was monitored by measuring the conversion of moenomycin A to MC, as described in Example 3, below. Further purification was achieved using hydrophobic chromatography. The enzyme was bound to phenylsepharose (Pharmacia), and was then eluted with 40% methanol. The enzyme was concentrated by ultrafiltration using an ultrafiltration membrane (Millipore) which retains molecules with molecular weights ≥10,000 Dalton.

transglycosylase [2] = target: T1, transglycosylase (Escherichia coli, UniProt P02919); experiment: Transglycosylase assay (Izaki), inhibition of polymerization of the peptidoglycan-sugar chains; assay type: biochemical, E. coli K 12; details: moenomycin A 20 μg/ml; concentration of MB not stated separately
Experimental: (§1) The inhibition of the polymerization of the peptidoglycan-sugar chains by the cleavage products was carried out by the assay described by Izaki (J. Biol. Chem. 243, 3180-3192, 1968) using lipid intermediates from the cell membrane of E. coli K 12.

Str. pyogenes 77 = experiment: Agar dilution test, Mueller-Hinton agar (minimum inhibitory concentration); assay type: cell-based; details: Streptococcus pyogenes
Experimental: (§2) An agar dilution test with Mueller-Hinton agar was carried out to determine the antibacterial activities (Antibiotics in Laboratory Medicine, V. Lorian, Ed., Baltimore 1986, pages 1-10).

E. coli DC2 = experiment: as above; assay type: cell-based; details: Escherichia coli
Experimental: as §2

Staph. aureus 503 = experiment: as above; assay type: cell-based; details: Staphylococcus aureus
Experimental: as §2

transglycosylase [3] = target: T1, transglycosylase; experiment: Another study: inhibition of the transglycosylase reaction, in vitro peptidoglycan synthesis; assay type: biochemical, E. coli K 12; details: Final Concentration 12.5 μg/l
Experimental: as §1
Results of another study of the inhibition of the transglycosylase reaction by moenomycin cleavage products in vitro is shown in the following Table. The values in the Table show the inhibition of peptidoglycan-sugar chain synthesis in vitro. Decahydro MB is an analog of MB that has no double bonds in the alkyl chain.

Moenomycinase [4] = experiment: Moenomycinase kinetics (Km for substrate); assay type: biochemical, Bacillus spec. DSM 4675; details: moenomycin A as substrate
[5] = tested on: biosynthesis of the peptidoglycan framework of the bacterial cell wall; details: cited from earlier work

T1 sequence (P02919 whole entry): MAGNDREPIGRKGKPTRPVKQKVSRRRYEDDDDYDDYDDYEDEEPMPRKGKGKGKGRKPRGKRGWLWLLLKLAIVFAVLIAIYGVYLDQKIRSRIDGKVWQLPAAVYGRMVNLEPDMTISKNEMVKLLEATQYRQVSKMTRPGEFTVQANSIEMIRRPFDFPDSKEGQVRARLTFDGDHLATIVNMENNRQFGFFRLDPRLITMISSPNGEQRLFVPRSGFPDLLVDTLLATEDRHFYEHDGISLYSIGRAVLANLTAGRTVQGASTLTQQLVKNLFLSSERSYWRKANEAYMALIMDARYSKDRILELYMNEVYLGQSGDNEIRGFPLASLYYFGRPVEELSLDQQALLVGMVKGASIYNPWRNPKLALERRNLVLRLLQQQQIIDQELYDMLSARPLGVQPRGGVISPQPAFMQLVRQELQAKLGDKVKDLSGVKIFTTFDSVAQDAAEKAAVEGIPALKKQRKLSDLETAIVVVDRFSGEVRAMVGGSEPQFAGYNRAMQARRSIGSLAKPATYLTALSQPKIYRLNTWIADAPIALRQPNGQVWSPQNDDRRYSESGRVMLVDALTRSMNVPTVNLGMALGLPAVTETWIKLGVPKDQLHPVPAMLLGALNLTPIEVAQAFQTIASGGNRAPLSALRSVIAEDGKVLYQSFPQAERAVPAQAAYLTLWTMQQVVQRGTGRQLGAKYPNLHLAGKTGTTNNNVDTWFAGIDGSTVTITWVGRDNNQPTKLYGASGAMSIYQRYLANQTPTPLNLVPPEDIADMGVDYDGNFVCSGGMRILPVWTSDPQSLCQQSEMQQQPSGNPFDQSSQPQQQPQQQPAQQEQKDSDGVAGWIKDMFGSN

Compound: O=C(O)CN(CCN(CC(=O)O)CC(=O)O)CC(=O)O [EDTA]
- inhibition of moenomycinase (Moenomycinase [1]): inhibited

Compound: C=C(CC=C(C)CCC=C(C)C)CCC(C)(C)C=CCCC(C)=CCO[C@H](COP(=O)(O)O)C(=O)O [MB]
- inhibition of the transglycosylase reaction (transglycosylase [2]): 32.9%
- MIC (Str. pyogenes 77): 3.12 µg/mL (≈ 5.93 µM)
- MIC (E. coli DC2): > 100 µg/mL
- MIC (Staph. aureus 503): 25 µg/mL (≈ 47.5 µM)
- % Inhibition of In Vitro Peptidoglycan Synthesis (transglycosylase [3]): 94%

Compound: C=C(CC=C(C)CCC=C(C)C)CCC(C)(C)C=CCCC(C)=CCOC(COP(=O)(O)OC1OC(C(N)=O)C(C)(O)C(OC(N)=O)C1OC1OC(COC2OC(CO)C(O)C(O)C2O)C(OC2OC(C)C(OC3OC(C(=O)NC4=C(O)CCC4=O)C(O)C(O)C3O)C(O)C2NC(C)=O)C(O)C1NC(C)=O)C(=O)O (stereo not shown) [moenomycin A]
- Km (Moenomycinase [4]): 4 to 10 mM
- inhibition of the biosynthesis of the peptidoglycan framework of the bacterial cell wall [5]: inhibits

Compound: CC(C)CCCC(C)CCC(C)CCC(C)(C)CCCCC(C)CCO[C@H](COP(=O)(O)O)C(=O)O (stereo partly shown) [Decahydro MB]
- % Inhibition of In Vitro Peptidoglycan Synthesis (transglycosylase [3]): 28%

Compound: CC(=O)OCC1=C(C(=O)O)N2C(=O)[C@@H](N)[C@H]2SC1 [7-aminocephalosporin acid (7-ACA), 7-aminocephalosporin acid]
- inhibition of moenomycinase (Moenomycinase [1]): inhibited

Compound: formalin
- inhibition of moenomycinase (Moenomycinase [1]): inhibited

Compound: CC(=O)OCC1=C(C(=O)O)N2C(=O)[C@@H](NC(=O)CCC[C@@H](N)C(=O)O)[C@H]2SC1 [Cephalosporin C]
- inhibition of moenomycinase (Moenomycinase [1]): inhibited

Compound: C=C(CC=C(C)CCC=C(C)C)CCC(C)(C)C=CCCC(C)=CCO[C@H](CO)C(=O)O [MA]
- MIC (Str. pyogenes 77): > 100 µg/mL
- MIC (E. coli DC2): > 100 µg/mL
- MIC (Staph. aureus 503): > 100 µg/mL
- % Inhibition of In Vitro Peptidoglycan Synthesis (transglycosylase [3]): 67%
